Assay results: patent publication US20240373849A1, “INSECT NEUROPEPTIDE ANALOGUES” (THE UNIVERSITY COURT OF THE UNIVERSITY OF GLASGOW, priority 2020, published 2024)
“And” between values parts separate entries of the source, which are not always exact repeats. Equal values may be shown once. Square brackets hold non-standard residues; d marks the D form. * marks the point of attachment. Palmitoyl = CCCCCCCCCCCCCCCC(=O)*; NMeV = CN[C@H](C(=O)O)C(C)C; NMeA = CN[C@@H](C)C(=O)O; Aib = CC(C)(N)C(=O)O

How the values were obtained:
[1] = tested on: D. suzukii larvae; test: Drosophila suzukii larval feeding (Example 9; dose response); type: in vivo; settings: for % Lethality ± SEM: Table 6, 10^−5 M, 48 hr and/or 72 h exposure (FIG. 7: AH270/PEGAH270 120 h)
Experimental: Dose response experiments were carried out for AH382, AH383, AH188, data shown for AH382 (a), AH383 (b), AH188 (c, 48 hours). Data are mean % lethality ±SEM for concentrations between 10^−4 M and 10^−7 M (a) AH382, (b) AH383 72 hours treatment; and between 10^−5 M and 10^−9 M (AH188, 3c), 48 hours treatment. The LD50 for AH382, AH383 and AH188 is 10^−6 M.
Further larval feeding assays with D. suzukii larvae were conducted as explained above in example 7. A total of 88 peptides were tested against D. suzukii larvae in 96 well plates at 10^−5 M in a final volume of 200 μl of 0.8% agarose containing 0.09% m-Cresol purple pH marker dye (Sigma) and 5% sucrose (Sigma). Controls contained dH2O (18% lethality) or native Capa-2 peptide (38% lethality) as a ‘sham’ treatment. Each peptide was assayed with a minimum of 7 to maximum 9 late L2/early L3 larvae per well, minimum n=8 wells per peptide concentration (minimum 56 larvae) and a minimum n=12 control wells (minimum 84 larvae) per plate. Larvae were assayed for lethality after 48 hr and/or 72 h exposure at 21° C. using a binocular stereomicroscope and findings recorded. Candidate peptides were also tested between 10^-4 and 10^-7 M (dose response curve).
Candidate peptides for D. suzukii with 70%-90% lethality are indicated below, in Table 6.

[2] = tested on: Myzus persicae aphids; test: Topical application by spraying, Potter Spray Tower (Example 3); type: in vivo; settings: 48 hours post spray
Experimental: Aphids were exposed to test peptides in the absence of additional external stress conditions.
Brassica rapa (Chinese cabbage; Wong Bok) were infested with 30 adult Myzus persicae aphids per plant. Aphids were left at least 2 hours to settle and begin feeding from the host plant.
Potter Spray Tower (Burkard Manufacturing) was ‘primed’ by spraying 1000 μl of liquid coating the inside of the tower. Vehicle spray only (Croda ATPlus UEP 100 LQ-(CQ) 0.1% v/v) was used as a control.
Spray volumes for all solutions were 3000 μl. […] After spraying was completed the plant was allowed to rest on the spray platform for 30 seconds to allow settling of the sprayed chemical.
Post peptide application, each condition was placed into its own individual Bugdorm (Watkins and Doncaster, 44545), to prevent repulsed or displaced aphids moving from one condition to another. Numbers of alive and dead aphids on the plant were counted 48 hours post spray, and the presence of any fresh nymphs noted. Plants were watered prior to spraying but not afterwards to eliminate the possibility of drowning any aphids present or washing off the sprayed liquid.
The vehicle control group was used to determine baseline lethality. Results for neuropeptide analogues were calculated as % lethality in the remaining population after adjustment for the baseline.

[3] = tested on: M. persicae; test: Feeding of aphids with peptides in artificial diet (Example 1); type: in vivo, Myzus persicae
Experimental: A standard artificial diet for M. persicae was produced as described in Van Emden (2009) and provided the basal diet to which peptides were added for screening purposes. Peptides were diluted individually in the artificial diet to a pre-determined concentration.
Feeding apparatus were constructed using a set-up developed by Sadeghi et al (2009). For this, a piece of Parafilm was stretched over a Plexiglas ring (h=4 cm, Ø=3 cm) and 100 μl of the artificial diet containing the desired neuropeptide analogue was pipette onto the Parafilm membrane. A second piece of Parafilm, stretched to 4 times the original thickness, was stretched over the original layer, sandwiching the artificial diet between two layers of Parafilm. A strip of Parafilm was wrapped around the circumference of the Plexiglas ring, sealing in the diet. A plastic ring (h=1.2 cm, Ø=3.4 cm) was subsequently placed over the Parafilm layer, creating a walled chamber in which to house test aphids in contact with the Parafilm layer containing the artificial diet. Finally, a small Petri dish (h=1 cm, Ø=3.6 cm), modified for ventilation with net cloth, was placed on top of each feeding apparatus to prevent aphid escape.
To obtain aphids for use in experiments, reproducing anholocyclic adults were placed on individual excised leaves of Chinese cabbage at densities of 5 adults per leaf and allowed to reproduce for 24 h. The stem of each excised leaf was held within a 0.5 mL Eppendorf tube containing water via a punctured hole in the Eppendorf lid, and placed individually within a microcage (L=4 cm, Ø=9.5 cm). Following 24h, adults were removed and resultant first instar nymphs (<1 day old and synchronised in age to within 24h) retained. Nymphs were allowed to develop on the Chinese cabbage for 5 days. On day 5, (3rd instar) nymphs were transferred onto the artificial diet containing a neuropeptide analogue at densities of 1 per feeding chamber and monitored daily until death. Aphids were transferred to fresh artificial diet (containing neuropeptide analogue or water control) every 5 days.
The water control group was used to determine baseline lethality. Results for neuropeptide analogues were calculated as % lethality in the remaining population after adjustment for the baseline.

[4] = tested on: Drosophila suzukii larvae; test: Drosophila suzukii larval feeding (Example 8; peptide screening); type: in vivo; set-up: key to D. suzukii (Sig Diff Grp): A indicates a significant difference in survival compared with control (blank).; B indicates a significant difference in survival compared with scrambled capa1.; C indicates a significant difference in survival compared with scrambled capa2; settings: for Feeding D. suzukii, % lethality in population after adjustment for baseline: 10^−5 M, 48 hr exposure
Experimental: (§1) First to Fourth generations of peptides were produced with varying structures and tested for CAPA receptor agonist activity, and screened for lethality in vivo against D. suzukii and M. persicae as per methods in example 2 and example 8. The top performing peptides were selected and gave rise to the list of CAPA1 and CAPA2 peptides provided above in Table 1 which were then further tested in the following applied examples.
Peptides were tested at concentrations ranging from [10^−4 M] to [10^−7 M] in a final volume of 200 μl of 0.8% agarose containing 0.09% m-Cresol purple pH marker dye (Sigma) and 5% sucrose (Sigma).
Agarose was melted in dH2O, before addition of sucrose and dye. The agarose/dye solution was then allowed to cool to 60° C. 96 well plates (flat-bottomed 3596 TC-plates; Corning) containing 20 μl volumes of neuropeptide per well were prepared, and 180 μl agarose/dye solution dispensed into each well via a Distriman repetitive micro-pipettor (Gilson). Controls contained 20 μl dH2O as a ‘sham’ treatment with 180 μl of the 0.8% agarose/dye solution. Plates were agitated at 800 rpm, to ensure mixing, at 60° C. (Eppendorf Thermomixer C). Plates were then allowed to cool, and agarose/dye solution solidify, prior to use.
Each peptide was assayed with a minimum of 7 to maximum 9 late L2/early L3 Spotted wing Drosophila, Drosophila suzukii, (feeding) larvae per well, minimum n=8 wells per peptide concentration and a minimum n=12 control wells per plate. The selected larvae were first washed 2× in ice cold Drosophila Schneider's liquid medium (ThermoFisher) before insertion into wells to remove extraneous food. After complete insertion of all larvae the plates were covered with breathable sealing membrane for multi-well plates (Sigma).
Larvae were assayed for lethality after 48 hr exposure at 21° C. and findings recorded. During examination the assay plate was kept on ice, to reduce larval locomotor activity (wandering), and larvae in each well were examined using a binocular stereomicroscope (Zeiss).
The water control group was used to determine baseline lethality. Results for neuropeptide analogues were calculated as % lethality in the remaining population after adjustment for the baseline. Results are shown in Tables 7 and 8 below, and in FIG. 1.

[5] = tested on: M. persicae; test: Feeding of aphids with peptides in artificial diet (Example 2; peptide screening, honeydew); type: in vivo, Myzus persicae; settings: for M. persicae (% Lethality): Peptide screening, Table 5; for mean lethality / lethality observed in one sample of 30 insects: M. persicae feeding, 10^−5 M, 120 hours; for lethality observed in one sample of 30 insects: single sample
Excerpt: as §1
The aphid feeding protocol was devised according to Sadeghi et al (2009) as explained in example 1. Feeding discs were designed and manufactured as above. A standard sucrose-based artificial diet for M. persicae (30 aphids per chamber, 3 chambers per experiment unless otherwise stated) was produced as described in example 1 (Sadeghi et al, J. Insect Science, 2009) and provided the basal diet to which peptides were added for screening purposes. Peptides were diluted individually in the artificial diet to 10^−5 M. Lethality was scored after up to 120 hours (IRAC guidelines for aphid testing).
Membrane discs were also included to collect ‘honeydew’ secreted by feeding aphids and stained with ninhydrin to observe feeding patterns.
Comparison of purple stain in controls to treated aphids, show there is very little colour on many membranes where peptides were added.
Capa peptides cause mortality in M. persicae via feeding: At 120 hours, AH383 and AH387 peptides induce ˜60% mean (and median) lethality. Although mean lethality is lower with AH270/PEGAH270 (40%), 100% lethality is observed in one sample of 30 insects (AH270); and 90% in at least one sample of each of AH383, AH387 and PEGAH270 (FIG. 3). Note that PEGAH270 is a pegylated form of peptide AH270.

[6] = tested on: bumblebees (Bombus terrestris); test: Bumblebee acute oral toxicity test; type: in vivo
Experimental: Oral toxicity against bumblebees (Bombus terrestris) was determined as previously described:
OECD (2017), Test No. 247: Bumblebee, Acute Oral Toxicity Test, OECD Guidelines for the Testing of Chemicals, Section 2, OECD Publishing, Paris, https://doi.org/10.1787/9789264284128-en.
Example data are provided for peptides, AH56, AH257, AH259 in Tables 4, 5 below. […]
Data were acquired for: feeding behaviour—weight of liquid consumed pre- and post-treatment; lethality (days).
There was no negative impact on feeding behaviour from capa peptides. Acute bumblebee toxicity was also assessed for other peptide candidates including: AH270, PEG270. Overall, capa peptides are bee safe.

[7] = Table 11, individual bees, peptide 1 × 10 − 5M or Spirotetramat 25 uM, listed as AHPEG270

H-ASGLVAFPRV-NH2 [Capa-2, reference compound]
lethality ([1]; control ('sham') treatment, not baseline adjusted): 38%

H-LY-(Me)A-FARV-NH2 (H-LY[NMeA]FARV-NH2; SMILES CC(C)C[C@H](N)C(=O)N[C@@H](Cc1ccc(O)cc1)C(=O)N(C)[C@@H](C)C(=O)N[C@@H](Cc1ccccc1)C(=O)N[C@@H](C)C(=O)N[C@@H](CCCNC(=N)N)C(=O)N[C@H](C(N)=O)C(C)C) [AH382]
Spray Aphid, % lethality in population after adjustment for baseline ([2]; 10^−4 M): 49% | Spray Aphid, % lethality in population after adjustment for baseline ([2]; 10^−5 M): 10% | Feeding Aphid, % lethality in population after adjustment for baseline ([3]; 10^−5 M): 12% | Feeding D. suzukii, % lethality in population after adjustment for baseline [4]: 43% | LD50 ([1]; 72 hours treatment): 10^−6 M | % Lethality ± SEM [1]: 90 + 4%

Palmitoyl-LYAFPRV-NH2 (SMILES CCCCCCCCCCCCCCCC(=O)N[C@@H](CC(C)C)C(=O)N[C@@H](Cc1ccc(O)cc1)C(=O)N[C@@H](C)C(=O)N[C@@H](Cc1ccccc1)C(=O)N1CCC[C@H]1C(=O)N[C@@H](CCCNC(=N)N)C(=O)N[C@H](C(N)=O)C(C)C) [AH62]
M. persicae (% Lethality) [5]: 29%

H-LYAFAR-(Me)V-NH2 (H-LYAFAR[NMeV]-NH2; SMILES CC(C)C[C@H](N)C(=O)N[C@@H](Cc1ccc(O)cc1)C(=O)N[C@@H](C)C(=O)N[C@@H](Cc1ccccc1)C(=O)N[C@@H](C)C(=O)N[C@@H](CCCNC(=N)N)C(=O)N(C)[C@H](C(N)=O)C(C)C) [AH380]
Spray Aphid, % lethality in population after adjustment for baseline ([2]; 10^−5 M): 33% | Feeding Aphid, % lethality in population after adjustment for baseline ([3]; 10^−5 M): 12% | Feeding D. suzukii, % lethality in population after adjustment for baseline [4]: 45%

H-LY-Aib-FARV-NH2 (H-LY[Aib]FARV-NH2; SMILES CC(C)C[C@H](N)C(=O)N[C@@H](Cc1ccc(O)cc1)C(=O)NC(C)(C)C(=O)N[C@@H](Cc1ccccc1)C(=O)N[C@@H](C)C(=O)N[C@@H](CCCNC(=N)N)C(=O)N[C@H](C(N)=O)C(C)C) [AH387]
Spray Aphid, % lethality in population after adjustment for baseline ([2]; 10^−5 M): 12% | mean lethality [5]: ~60% | lethality observed in one sample of 30 insects [5]: 90% | Feeding Aphid, % lethality in population after adjustment for baseline ([3]; 10^−5 M): 14% | Feeding Aphid, % lethality in population after adjustment for baseline ([3]; 10^−5 M, 60 h): 6 (35% | Feeding D. suzukii, % lethality in population after adjustment for baseline [4]: 62%

H-Ahx-L-(Me)V-AFPRV-NH2 [AH283]
Spray Aphid, % lethality in population after adjustment for baseline ([2]; 10^−4 M): 30% | Spray Aphid, % lethality in population after adjustment for baseline ([2]; 10^−5 M): 20% | M. persicae (% Lethality) [5]: 40% | Feeding Aphid, % lethality in population after adjustment for baseline ([3]; 10^−4 M): 34% | Feeding Aphid, % lethality in population after adjustment for baseline ([3]; 10^−5 M): 26% | Feeding Aphid, % lethality in population after adjustment for baseline ([3]; 10^−5 M, @72 h): 12 (51% | Feeding Aphid, % lethality in population after adjustment for baseline ([3]; 10^−6 M): 27% | Feeding Aphid, % lethality in population after adjustment for baseline ([3]; 10^−7 M): 20% | Feeding D. suzukii, % lethality in population after adjustment for baseline [4]: 43% | D. suzukii (Mean% Lethality ± SD) ([4]; Peptide screening, Table 5, blank control 20.33): 42.63% | D. suzukii (Sig Diff Grp) ([4]; Peptide screening, Table 5, difference in survival): A

PEG-Ahx-LV-(Me)A-FPR-(Me)V-NH2 [PEGAH270, a pegylated form of peptide AH270]
mean lethality [5]: 40% | lethality observed in one sample of 30 insects [5]: 90% | % Lethality ± SEM [1]: 77 ± 4% | Liquid post exposure (weight), Mean ([6]; Table 11, group mean, n=10): 0.8814 g | liquid consumed per day post exposure, Mean ([6]; Table 11, group mean, n=10): 0.2211 g | Liquid post exposure (weight) [6, 7]: 1.5744 g and 0.7150 g and 0.4326 g and 0.2731 g and 1.1763 g and 1.8061 g and 0.5676 g and 1.5696 g and 0.6889 g and 0.0102 g | days alive [6, 7]: 4 days (9×) and 0 (approx 1 hr) days | liquid consumed per day post exposure [6, 7]: 0.3936 g and 0.1788 g and 0.1082 g and 0.0683 g and 0.2941 g and 0.4515 g and 0.1419 g and 0.3924 g and 0.1722 g and 0.0102 g | safety towards B. terrestris in the bumblebee oral toxicity assay ([6]; in vivo, po): safe
